From PMC10202811 (Nature Medicine, 2023)
Values joined by “and” are separate entries in the source; they are usually repeats but may differ in a detail not shown here. Equal entries are not always repeated. Marks after values point to notes of the source that are not given here.

Experiment: Toxicity assessment (CTCAE version 4): treatment-related AEs, DLTs, dose reductions, RP2D; phase 1 NANT2015-02
Method: Five DLs (45, 60, 75, 95 and 115 mg/m^2/dose) were assessed in A1, using a 3 + 3 design. […] Myeloid growth factor was given 24 hours after the completion of topotecan/cyclophosphamide on B2, according to institutional standards. Instructions and hands-on training for a tablet dispersion formulation, validated by Pfizer, was provided to families of patients who could not swallow tablets.
Initially, this was the only DL planned, but, with a subsequent amendment, a second DL was added to cohort A2 (150 mg). […] Finally, because of the nature of the patients in cohort A2 (which had only two planned DLs), an expansion of up to six additional patients was planned for the highest DL tested with zero or one DLT in six DLT-evaluable patients. Accrual could continue in the expansion cohort as long as none, or at most one, of the patients experienced DLT in the DLT observation period; if two or more patients experienced DLT in the DLT observation period, this would lead to a discussion of the suitability of this dose. The probability of observing […] with DLT, out of six patients, is 0.11, 0.22, 0.47, 0.68 and 0.77 when the true probability of DLT is 0.10, 0.15, 0.25, 0.35 and 0.40, respectfully.
Patients who were not evaluable for DLT were replaced for dose-escalation purposes. […] The MTD was defined as the highest DL tested at which zero of six or one of six patients experience DLT. After determination of the MTD and review of all toxicities, and provided that other safety considerations were acceptable, the MTD was labeled the RP2D.
Toxicity was graded according to CTCAE version 4. DLT definitions included only toxicities deemed at least possibly related to therapy. For A1 and A2, hematologic DLT was defined as grade 4 thrombocytopenia or grade 4 neutropenia >7-day duration or a delay in the start of subsequent course by more than 14 days due to ongoing thrombocytopenia or neutropenia, in the absence of bone marrow disease progression seen on clinically indicated bone marrow biopsy (if performed). For cohort B2, hematological DLT is defined as a delay in the start of subsequent course by more than 14 days due to ongoing thrombocytopenia or neutropenia, in the absence of bone marrow disease progression seen on clinically indicated bone marrow biopsy after the first dose reduction of cyclophosphamide and topotecan. Non-hematologic DLT was defined as any non-hematologic toxicity that delayed the start of a subsequent cycle by more than 14 days or any grade ≥3 toxicity, with the exception of the following grade 3 toxicities: nausea, vomiting, anorexia or dehydration resolving to grade ≤2 within 72 hours; increase in hepatic transaminase or electrolyte abnormality resolving eligibility levels within 7 days; diarrhea persisting for less than 72 hours; fever; infection; febrile neutropenia; high cholesterol or triglycerides if responsive (to ≤grade 2) with statin treatment; weight gain; and hyperglycemia if responsive (to <grade 2) with dietary modification.

[1] = Cohort A1, one line per patient (PID)
[2] = Cohort A2, neurotoxicity, one line per patient (PID)
[3] = Cohort A2, one line per patient (PID)
[4] = patients <18 years, single agent
[5] = single-agent lorlatinib across all ages, grade 1–4 treatment-related

## C[C@H]1Oc2cc(cnc2N)-c2c(nn(C)c2C#N)CN(C)C(=O)c2ccc(F)cc21 [Lorlatinib, (10R)-7-amino-12-fluoro-2,10,16-trimethyl-15-oxo-10,15,16,17-tetrahydro-2H-8,4-(metheno)pyrazolo[4,3-h][2,5,11]-benzoxadiazacyclotetradecine-3-carbonitrile]
[1]
  Nausea: Toxicity Maximum Grade per patient: 1
  Neutrophil count decreased: Toxicity Maximum Grade per patient: 2
  Peripheral sensory neuropathy: Toxicity Maximum Grade per patient: 2 and 1
  Platelet count decreased: Toxicity Maximum Grade per patient: 1
  Tinnitus: Toxicity Maximum Grade per patient: 1
  Vomiting: Toxicity Maximum Grade per patient: 1
  Weight gain: Toxicity Maximum Grade per patient: 2 and 3 and 1
  White blood cell decreased: Toxicity Maximum Grade per patient: 1 and 3
Cohort A2, 100 mg
  Patients with DLT in course 1: 0
  Patients with DLT in course 2: 0
  Patients with DLT in other courses: 2^c
Cohort A2, 150 mg
  Patients with DLT in course 1: 1^d
  Patients with DLT in course 2: 2^e,f
  Patients with DLT in other courses: 3^e,f,g
Cohort A2, patient PID 8, CTCAE grade
  Toxicity Maximum Grade per patient: Sinus tachycardia: 1
Cohort A2, grade 1-2, 3, 4 in c8-c10
  Neutrophil count decreased: 0 (0) n (%)
Cohort A2, grade 1-4 in c5-c8
  Hypersomnia (CNS effect): 0 (0)
[2]
  Agitation: Toxicity Maximum Grade per patient: 4 and 3 and 1
  Anxiety: Toxicity Maximum Grade per patient: 4 and 3 and 2 and 1
  Cognitive disturbance: Toxicity Maximum Grade per patient: 1 and 2
  Concentration impairment: Toxicity Maximum Grade per patient: 1 and 2 and 3
  Depression: Toxicity Maximum Grade per patient: 1 and 3
  Hallucinations: Toxicity Maximum Grade per patient: 1 and 4
  Headache: Toxicity Maximum Grade per patient: 1
  Memory impairment: Toxicity Maximum Grade per patient: 1 and 2 and 3
[3]
  Alanine aminotransferase increased: Toxicity Maximum Grade per patient: 1 and 2
  Alkaline phosphatase increased: Toxicity Maximum Grade per patient: 1
  Anemia: Toxicity Maximum Grade per patient: 3 and 1 and 2
  Aspartate aminotransferase increased: Toxicity Maximum Grade per patient: 1 and 2
  Cholesterol high: Toxicity Maximum Grade per patient: 2 and 3 and 1
  Creatinine increased: Toxicity Maximum Grade per patient: 1 and 2
  Diarrhea: Toxicity Maximum Grade per patient: 2 and 1
  Edema limbs: Toxicity Maximum Grade per patient: 1 and 2
  Electrocardiogram QT corrected interval prolonged: Toxicity Maximum Grade per patient: 1
  Fatigue: Toxicity Maximum Grade per patient: 1
  Flatulence: Toxicity Maximum Grade per patient: 1
  Gastroesophageal reflux disease: Toxicity Maximum Grade per patient: 2 and 1
  Hyperglycemia: Toxicity Maximum Grade per patient: 1 and 3
  Hypertriglyceridemia: Toxicity Maximum Grade per patient: 3 and 2 and 1
  INCREASED APPETITE: Toxicity Maximum Grade per patient: 1 and 2
  Irritability: Toxicity Maximum Grade per patient: 4
  Lymphocyte count decreased: Toxicity Maximum Grade per patient: 4 and 1
  Nausea: Toxicity Maximum Grade per patient: 1 and 2
  Peripheral sensory neuropathy: Toxicity Maximum Grade per patient: 3 and 2 and 1
  Platelet count decreased: Toxicity Maximum Grade per patient: 1 and 2
  Tinnitus: Toxicity Maximum Grade per patient: 1
  Vomiting: Toxicity Maximum Grade per patient: 1
  Weight gain: Toxicity Maximum Grade per patient: 2 and 1 and 3
  White blood cell decreased: Toxicity Maximum Grade per patient: 1 and 2
Cohort B2, DL4 (95 mg/m^2)
  Patients with DLT in course 1: 0
  Patients with DLT in course 2: 0
  Patients with DLT in other courses: 0
Cohort B2, DL5 (115 mg/m^2)
  Patients with DLT in course 1: 0
  Patients with DLT in course 2: 0
  Patients with DLT in other courses: 1^h
Cohort B2, grade 1-4 in c9-c12
  Amnesia (CNS effect): 0 (0)
  Delirium (CNS effect): 0 (0)
  Delusions (CNS effect): 0 (0)
  Depressed level of consciousness (CNS effect): 0 (0)
  Dizziness (CNS effect): 0 (0)
  Dysarthria (CNS effect): 0 (0)
  Euphoria (CNS effect): 0 (0)
  Mania (CNS effect): 0 (0)
  Paresthesia (CNS effect): 0 (0)
  Psychosis (CNS effect): 0 (0)
  Restlessness (CNS effect): 0 (0)
  Stuttering (CNS effect): 0 (0)
  Suicidal ideation (CNS effect): 0 (0)
adults, single agent
  incidence of peripheral neuropathy: 27%
In combination with topotecan/cyclophosphamide, patients <18 years, daily (DL5)
  RP2D: 115 mg/m^2
Lorlatinib combined with topotecan/cyclophosphamide, <18 years
  hypertriglyceridemia, patients with AE: 89%
[4]
  Grade 1–2 peripheral limb edema: 4%
  incidence of peripheral neuropathy: 13%
Patients ≥18 years, single agent
  Grade 1–2 peripheral limb edema: 47%
Single agent, 115 mg/m^2/dose daily
  RP2D <18 years relative to the adult RP2D: approximately 200%
Single agent, patients <18 years, daily (DL5)
  RP2D: 115 mg/m^2
Single agent, patients ≥18 years, daily
  RP2D: 150 mg
[5]
  hypercholesterolemia / elevated cholesterol, patients with AE: 79%
  hypertriglyceridemia, patients with AE: 90%
  weight gain, patients with AE: 87%
≥18 years (cohort A2), four of 15
  patients developing grade 2–4 CNS effects: 27%
≥18 years, 150 mg (n = 10)
  patients requiring dose reduction due to toxicities: 50%
